Consider 8 compounds from PubChem BioAssay AID256 (DTP/NCI, 2004).

The test system of the test is CD2F1 mice, L1210 leukemia ip, survival T/C. Put plainly: NCI In Vivo Anticancer Drug Screen. Data for tumor model L1210 Leukemia (intraperitoneal) in CD2F1 (CDF1) mice. The following applies: higher = longer survival. An outline of the steps:
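Activity against a transplanted murine tumor was judged by comparing the compound group with a vehicle group. The outcome in the treated animals was divided by that in the controls.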

Setting [1] is: endpoint: mean survival time, dose: 50.0 mg/kg/injection, schedule: Q01DX009 (ip), vehicle: saline with Tween-80.
[2] abbreviates: endpoint: mean survival time, dose: 100.0 mg/kg/injection, schedule: Q01DX009 (ip), vehicle: saline with Tween-80.
The mark [3] stands for this setting: endpoint: mean survival time, dose: 200.0 mg/kg/injection, schedule: Q01DX009 (ip), vehicle: saline with Tween-80.

Molecules are shown by their SMILES. Several values for one entry are separate records, joined by “and”; a condition that tells them apart may be missing. Identical values can stand only once. Inconclusive results and toxic doses are left out.

In the case of `C[n+]1ccc(Nc2ccc(NC(=O)c3ccc(Nc4cc[n+](C)c5ccc(N)cc45)cc3)cc2)cc1`, the T/C was 313 % of control (endpoint: mean survival time, dose: 2.0 mg/kg/injection, schedule: Q01DX009 (ip), vehicle: water); 341 % of control (endpoint: mean survival time, dose: 4.0 mg/kg/injection, schedule: Q01DX009 (ip), vehicle: water); 100 % of control (endpoint: median survival time, dose: 0.25 mg/kg/injection, schedule: Q03HX008 (ip), vehicle: water); 102 % of control (endpoint: median survival time, dose: 0.25 mg/kg/injection, schedule: Q03HX016 (ip), vehicle: water); 110 % of control (endpoint: median survival time, dose: 0.25 mg/kg/injection, schedule: Q03HX024 (ip), vehicle: water); 120 % of control (endpoint: median survival time, dose: 0.5 mg/kg/injection, schedule: Q01DX005 (ip), vehicle: water). Moreover, the T/C reads like this: (endpoint: median survival time, dose: 0.5 mg/kg/injection, schedule: Q01DX009 (ip), vehicle: water) 123 % of control; (endpoint: median survival time, dose: 0.5 mg/kg/injection, schedule: Q01DX009 (sc), vehicle: water) 96 % of control; (endpoint: median survival time, dose: 0.5 mg/kg/injection, schedule: Q03HX008 (ip), vehicle: water) 113 % of control; (endpoint: median survival time, dose: 0.5 mg/kg/injection, schedule: Q03HX016 (ip), vehicle: water) 109 % of control; (endpoint: median survival time, dose: 1.0 mg/kg/injection, schedule: Q01DX009 (sc), vehicle: water) 101 % of control; (endpoint: median survival time, dose: 1.0 mg/kg/injection, schedule: Q03HX016 (ip), vehicle: water) 158 % of control. Further, the T/C runs as follows: (endpoint: median survival time, dose: 1.0 mg/kg/injection, schedule: Q03HX024 (ip), vehicle: water) 180 % of control; (endpoint: median survival time, dose: 2.0 mg/kg/injection, schedule: Q01DX001 (ip), vehicle: water) 103 % of control; (endpoint: median survival time, dose: 2.0 mg/kg/injection, schedule: Q01DX001 (sc), vehicle: water) 97 % of control; (endpoint: median survival time, dose: 2.0 mg/kg/injection, schedule: Q01DX005 (ip), vehicle: water) 164 % of control; (endpoint: median survival time, dose: 2.0 mg/kg/injection, schedule: Q01DX009 (ip), vehicle: water) 274 % of control; (endpoint: median survival time, dose: 2.0 mg/kg/injection, schedule: Q01DX009 (oral), vehicle: water) 100 % of control. In addition, the T/C (endpoint: median survival time, dose: 2.0 mg/kg/injection, schedule: Q01DX009 (sc), vehicle: water) is 157 % of control; the T/C (endpoint: median survival time, dose: 2.0 mg/kg/injection, schedule: Q03HX008 (ip), vehicle: water) was 157 % of control; the T/C (endpoint: median survival time, dose: 2.0 mg/kg/injection, schedule: Q03HX016 (ip), vehicle: water) was 185 % of control; the T/C (endpoint: median survival time, dose: 2.0 mg/kg/injection, schedule: Q03HX024 (ip), vehicle: water) was 256 % of control; the T/C (endpoint: median survival time, dose: 2.0 mg/kg/injection, schedule: Q04DX003 (ip), vehicle: water) was 113 % of control; the T/C (endpoint: median survival time, dose: 4.0 mg/kg/injection, schedule: Q01DX001 (ip), vehicle: water) is 114 % of control. The T/C by setting is: (endpoint: median survival time, dose: 4.0 mg/kg/injection, schedule: Q01DX001 (sc), vehicle: water) 100 % of control; (endpoint: median survival time, dose: 4.0 mg/kg/injection, schedule: Q01DX005 (ip), vehicle: water) 252 % of control; (endpoint: median survival time, dose: 4.0 mg/kg/injection, schedule: Q01DX009 (ip), vehicle: water) 373 % of control; (endpoint: median survival time, dose: 4.0 mg/kg/injection, schedule: Q01DX009 (oral), vehicle: water) 97 % of control; (endpoint: median survival time, dose: 4.0 mg/kg/injection, schedule: Q01DX009 (sc), vehicle: water) 241 % of control; (endpoint: median survival time, dose: 4.0 mg/kg/injection, schedule: Q03HX008 (ip), vehicle: water) 175 % of control. Besides, the T/C is, setting by setting: (endpoint: median survival time, dose: 4.0 mg/kg/injection, schedule: Q03HX016 (ip), vehicle: water) 212 % of control; (endpoint: median survival time, dose: 4.0 mg/kg/injection, schedule: Q03HX024 (ip), vehicle: water) 321 % of control; (endpoint: median survival time, dose: 4.0 mg/kg/injection, schedule: Q08DX002 (ip), vehicle: water) 164 % of control; (endpoint: median survival time, dose: 8.0 mg/kg/injection, schedule: Q01DX001 (oral), vehicle: water) 92 % of control; (endpoint: median survival time, dose: 8.0 mg/kg/injection, schedule: Q01DX001 (sc), vehicle: water) 105 % of control; (endpoint: median survival time, dose: 8.0 mg/kg/injection, schedule: Q01DX009 (ip), vehicle: water) 332 % of control. For the same compound, the T/C was 98 % of control (endpoint: median survival time, dose: 8.0 mg/kg/injection, schedule: Q01DX009 (oral), vehicle: water); 307 % of control (endpoint: median survival time, dose: 8.0 mg/kg/injection, schedule: Q01DX009 (sc), vehicle: water); 157 % of control (endpoint: median survival time, dose: 8.0 mg/kg/injection, schedule: Q04DX003 (ip), vehicle: water); 98 % of control (endpoint: median survival time, dose: 16.0 mg/kg/injection, schedule: Q01DX001 (oral), vehicle: water); 121 % of control (endpoint: median survival time, dose: 16.0 mg/kg/injection, schedule: Q01DX001 (sc), vehicle: water); 100 % of control (endpoint: median survival time, dose: 16.0 mg/kg/injection, schedule: Q01DX009 (oral), vehicle: water). The T/C is, setting by setting: (endpoint: median survival time, dose: 16.0 mg/kg/injection, schedule: Q01DX009 (sc), vehicle: water) 120 % of control; (endpoint: median survival time, dose: 32.0 mg/kg/injection, schedule: Q01DX001 (oral), vehicle: water) 96 % of control; (endpoint: median survival time, dose: 32.0 mg/kg/injection, schedule: Q01DX009 (oral), vehicle: water) 98 % of control; (endpoint: median survival time, dose: 64.0 mg/kg/injection, schedule: Q01DX001 (oral), vehicle: water) 100 % of control; (endpoint: median survival time, dose: 64.0 mg/kg/injection, schedule: Q01DX001 (sc), vehicle: water) 208 % of control; (endpoint: median survival time, dose: 64.0 mg/kg/injection, schedule: Q01DX009 (oral), vehicle: water) 100 % of control. For the same compound, the T/C reads like this: (endpoint: median survival time, dose: 128.0 mg/kg/injection, schedule: Q01DX001 (oral), vehicle: water) 102 % of control; (endpoint: median survival time, dose: 256.0 mg/kg/injection, schedule: Q01DX001 (oral), vehicle: water) 92 % of control.

For the compound `O=[N+]([O-])c1ccc(Nc2cccc(Cl)c2)c([N+](=O)[O-])c1`, the T/C (endpoint: mean survival time, dose: 200.0 mg/kg/injection, schedule: Q04DX003 (ip), vehicle: saline with Tween-80) is 87 % of control.

As to `CCOP(=O)(Nc1ccc(F)cc1)OCC`, the T/C is, setting by setting: (endpoint: mean survival time, dose: 50.0 mg/kg/injection, schedule: Q01DX001 (ip), vehicle: carboxymethylcellulose (CMC)) 106 % of control; (endpoint: mean survival time, dose: 100.0 mg/kg/injection, schedule: Q01DX001 (ip), vehicle: carboxymethylcellulose (CMC)) 96 % of control; (endpoint: mean survival time, dose: 200.0 mg/kg/injection, schedule: Q01DX001 (ip), vehicle: carboxymethylcellulose (CMC)) 100 % of control; (endpoint: mean survival time, dose: 400.0 mg/kg/injection, schedule: Q01DX001 (ip), vehicle: carboxymethylcellulose (CMC)) 102 % of control.

`CCCCCCCCCCCCCC[N+]1(C)CCC[N+](C)(CCCCCCCCCCCCCC)CC1` (centres undefined): the T/C is 103 % of control (endpoint: mean survival time, dose: 100.0 mg/kg/injection, schedule: Q04DX003 (ip), vehicle: other) and 88 % of control (endpoint: mean survival time, dose: 200.0 mg/kg/injection, schedule: Q04DX003 (ip), vehicle: other).

For the compound `CC(=O)OCC1(C)NC(=O)c2ccccc2O1` (centres undefined), the T/C reads like this: (endpoint: mean survival time, dose: 12.5 mg/kg/injection, schedule: Q01DX009 (ip), vehicle: saline with Tween-80) 93 % of control and 112 % of control; (endpoint: mean survival time, dose: 25.0 mg/kg/injection, schedule: Q01DX009 (ip), vehicle: saline with Tween-80) 93 % of control and 101 % of control; under setting [1], 98 % of control and 103 % of control; under setting [2], 118 % of control and 100 % of control; under setting [3], 95 % of control and 106 % of control; (endpoint: mean survival time, dose: 400.0 mg/kg/injection, schedule: Q01DX009 (ip), vehicle: saline with Tween-80) 115 % of control.

For the compound `C=CCC(O)CCCC` (centres undefined), the T/C is 103 % of control under setting [1], 103 % of control under setting [2] and 103 % of control under setting [3].

With `COc1ccc(CCNC(=O)c2ccc(OC)c(OC)c2)cc1OC`, the T/C reads like this: (endpoint: mean survival time, dose: 12.5 mg/kg/injection, schedule: Q01DX009 (ip), vehicle: other) 104 % of control; (endpoint: mean survival time, dose: 25.0 mg/kg/injection, schedule: Q01DX009 (ip), vehicle: other) 90 % of control; (endpoint: mean survival time, dose: 50.0 mg/kg/injection, schedule: Q01DX009 (ip), vehicle: other) 103 % of control; (endpoint: mean survival time, dose: 100.0 mg/kg/injection, schedule: Q01DX009 (ip), vehicle: other) 98 % of control; (endpoint: mean survival time, dose: 200.0 mg/kg/injection, schedule: Q01DX009 (ip), vehicle: other) 97 % of control.

Regarding `CCCc1nc(/N=N/N(C)C)c(C(N)=O)[nH]1`, the T/C is 114 % of control (endpoint: mean survival time, dose: 75.0 mg/kg/injection, schedule: Q01DX001 (ip), vehicle: saline); 120 % of control (endpoint: mean survival time, dose: 150.0 mg/kg/injection, schedule: Q01DX001 (ip), vehicle: saline); 122 % of control (endpoint: mean survival time, dose: 300.0 mg/kg/injection, schedule: Q01DX001 (ip), vehicle: saline).
